Data from article PMC12040169 (PLOS Biology, 2025).

Test: in vitro
Details: human, hela cells, % viability

Compound	viability at 28.5 h, 10 µM [%]	viability at 28.5 h, 10 µM (bulk resorufin, single well) [%]
COc1cccc(NC(=O)CN2CCC(NC(=O)c3cccs3)CC2)c1 [CBK305800]	96.3	–
CCC1CCCN(C(=O)Cc2c(C)nc(-c3cccnc3)[nH]c2=O)C1 (stereo not drawn) [CBK305801]	91.7	–
COCCn1cc(C(=O)N(CC(N)=O)C2CCCC2)c2ccccc21 [CBK305802]	–	84.1
Cc1cccn2c(=O)cc(CN3CCC(c4cnn(C)c4)CC3)nc12 [CBK305806]	101	–
Cc1sc2[nH]c(CCC(=O)N3CCCC(C)CC3)nc(=O)c2c1C (stereo not drawn) [CBK305807]	103	–
COc1ccnc(N2CCN(Cc3nnnn3C3CC3)CC2)n1 [CBK305808]	85.6	–
CC(c1ccc(F)c(F)c1)N(C)C(=O)Cn1[nH]c(=O)ccc1=O (stereo not drawn) [CBK305810]	81.2	–
Cc1noc(C)c1CN1CCC(Oc2ccccc2)CC1 [CBK305811]	89.6	–
NC(=O)NC(CC(=O)N1CCc2sccc2C1)c1cccc(Br)c1 (stereo not drawn) [CBK305813]	95	–
O=C(NC1CCCCC1)C1CCCN(C(=O)NCc2ccccn2)C1 (stereo not drawn) [CBK305814]	114	–
CCc1nc(CN2CCN(C(=O)Nc3ccccc3C)CC2)cs1 [CBK305817]	87.5	–
c1ccc(C(NCc2nnc(-c3ccco3)o2)C2CCC2)cc1 (stereo not drawn) [CBK305818]	84.7	–
CC(NC(=O)CCC1CCCC1)c1nc(-c2ccncc2)cs1 (stereo not drawn) [CBK305819]	86.9	–
CCOC(=O)c1cccc(S(=O)(=O)NC(C)Cn2cncn2)c1 (stereo not drawn) [CBK305820]	95.9	–
CN(C)CC1CN(c2nc(-c3ccncc3)nc3c2CCC3)CCO1 (stereo not drawn) [CBK305824]	83	–
Cc1cccc(OCCNC(=O)CN2CCCC2c2cnn(C)c2)c1 (stereo not drawn) [CBK305826]	81	–
CC1CCCCC12NC(=O)N(Cc1csc(-c3cccs3)n1)C2=O (stereo not drawn) [CBK305829]	98.4	–
Cc1sc2ncn(CC(=O)NCCCN3CCCCC3)c(=O)c2c1C [CBK305831]	96.7	–
CCC1CCCCN1C(=O)Cn1cnc2c(Cl)cc(Cl)cc2c1=O (stereo not drawn) [CBK305833]	90	–
CCN(CC(=O)NCc1ccc(Cl)cc1)S(=O)(=O)c1ccc(OC)cc1 [CBK305836]	92.6	–
COc1ccccc1CN(C)C(C)C(=O)Nc1ccc(S(N)(=O)=O)cc1 (stereo not drawn) [CBK305839]	90.1	–

Compound	viability at 28.5 h, 10 µM [%]	viability at 28.5 h, 10 µM (bulk resorufin, single well) [%]
CC(C(=O)Nc1ccc(S(N)(=O)=O)cc1)N(C)Cc1ccccc1F (stereo not drawn) [CBK305840]	105	–
CCN(CC(=O)NCc1ccc(F)cc1)S(=O)(=O)c1ccccc1C#N [CBK305842]	91.1	–
CCCn1c(SCC(=O)N2CCc3ccccc32)nc(O)cc1=O [CBK305843]	95.4	–
CCn1cc(C(=O)N2CCC(C(=O)OC)CC2)c(=O)c2ccc(C)nc21 [CBK305848]	110	–
CCN(CC(=O)NC(C)C)Cc1csc(-c2ccc(F)cc2)n1 [CBK305849]	117	–
COCCn1c(SCC(=O)N2CCNC2=O)nc2ccccc21 [CBK305851]	97.3	–
Cc1cc(C)n(CCCNC(=O)Cn2cnc3sc(C)c(C)c3c2=O)n1 [CBK305852]	76.2	–
Cc1ccnc2nc(C(=O)OCC(=O)Nc3ccc4c(c3)CCC4)nn12 [CBK305853]	82.1	–
CCCC(=O)Nc1ccc(-c2csc(NC(=O)C3CCCO3)n2)cc1 (stereo not drawn) [CBK305854]	77.8	–
Cc1ccccc1Nc1nc(N)nc(CN2CC(C)OC(C)C2)n1 (stereo not drawn) [CBK305856]	105	–
O=C(CSc1nnnn1C1CC1)Nc1ccc(CN2CCOCC2)cc1 [CBK305857]	99.2	–
O=C1NC2(CCCCCC2)C(=O)N1Cc1coc(-c2cccs2)n1 [CBK305858]	94.2	–
CS(=O)(=O)N1CCCc2cc(-c3csc(N)n3)ccc21 [CBK305859]	86.4	–
CCCNC(=O)Cn1cnc2sc(C)c(C)c2c1=O [CBK305863]	88.8	–
CCn1c(SCC(=O)NC2CC2)nc2ccccc21 [CBK305864]	117	–
Cc1c(C(C)N)cnn1-c1ccc(C#N)cc1 (stereo not drawn) [CBK305869]	80.9	–
Cc1cc2nc(NCC3CCCO3)c3ccccc3n2n1 (stereo not drawn) [CBK305871]	99.6	–
O=C(Cn1cnc2c(Cl)cc(Cl)cc2c1=O)N1CCCCCC1 [CBK305874]	92	–
Cc1ccnc(NC(=O)C2CCCN(C(=O)OC(C)(C)C)C2)c1 (stereo not drawn) [CBK305875]	82.7	–
CC1CCC(N(C)Cc2nc3sc4c(c3c(=O)[nH]2)CCC4)CC1 (stereo not drawn) [CBK305876]	88.7	–
COc1ccc(C)cc1CC(=O)N1CCc2c(sc3ncnc(N)c23)C1 [CBK305878]	83.4	–

Compound	viability at 28.5 h, 10 µM [%]	viability at 28.5 h, 10 µM (bulk resorufin, single well) [%]
O=C(Cn1ccc(=O)[nH]c1=O)Nc1ccc(OCC(F)(F)F)cc1 [CBK305879]	98	–
CCc1nn2c(=O)cc(CN3C(=O)NC(C)(c4ccco4)C3=O)nc2s1 (stereo not drawn) [CBK305880]	114	–
COc1ccc(CCNC(=O)CCn2cncn2)cc1 [CBK305881]	105	–
O=C(Cn1cc(Br)ccc1=O)NC1CCN(CCc2ccccc2)CC1 [CBK305887]	99.5	–
CCN(Cc1ccc(C#N)cc1F)C(=O)NC(C)c1nncn1C (stereo not drawn) [CBK305888]	119	–
Cc1nc(C)n(C2CN(S(=O)(=O)c3ccc4scnc4c3)C2)n1 [CBK305889]	95.6	–
CCc1onc(C)c1NC(=O)NC1CC2(CCCC2)Oc2ccccc21 (stereo not drawn) [CBK305890]	97.6	–
COC(=O)CCSc1nc(C)nc2c1c(=O)n(C)c(=O)n2CC(C)C [CBK305891]	82.7	–
O=C(NCCCn1ccnc1)N1CCN(Cc2ccc(Cl)cc2)CC1 [CBK305894]	101	–
O=C(CN1CCCC1c1cccs1)Nc1cccc(C(=O)NC2CC2)c1 (stereo not drawn) [CBK305895]	98.5	–
CC1CCc2c(sc3ncnc(SCC(=O)N(C)CCC#N)c23)C1 (stereo not drawn) [CBK305896]	106	–
CN(Cc1ccccc1N1CCCC1)C(=O)Cc1cn2ccsc2n1 [CBK305897]	78	–
CN(CC(=O)NCc1ccc(Cl)cc1)S(=O)(=O)Cc1ccc(C#N)cc1 [CBK305899]	92.3	–
O=C(Cn1nnc2ccccc2c1=O)N1CCCC(C(F)(F)F)C1 (stereo not drawn) [CBK305900]	80.5	–
CC(=O)Nc1cccc(C(=O)OCC(=O)N2CCC(C)CC2)c1 [CBK305905]	98.3	–
CCC1CCCCN1Cc1nc2c(c(=O)n(C)c(=O)n2C)n1CCOC (stereo not drawn) [CBK305912]	104	–
CCc1ncc2c(n1)CN(Cc1cc(=O)n3cccc(C)c3n1)CC2 [CBK305914]	84.6	–
O=C(NCCN1CCN(C(=O)Nc2ccccc2)CC1)C1CCCC1 [CBK305915]	95.8	–
CN(C(=O)c1cc[nH]n1)C1CCN(c2ncnc3ccccc23)CC1 [CBK305916]	79	–
Cc1cc(C)n(C(C)C(=O)N2CCC(Nc3cccnc3)CC2)n1 (stereo not drawn) [CBK305917]	94.2	–
Cc1ccc(Cc2cnc(NC(=O)C3CNC(=O)N3)s2)cc1F (stereo not drawn) [CBK305919]	97.8	–

Compound	viability at 28.5 h, 10 µM [%]	viability at 28.5 h, 10 µM (bulk resorufin, single well) [%]
Cc1cc(C)n(CC2CCCN2C(=O)CCCc2ccccn2)n1 (stereo not drawn) [CBK305920]	105	–
CCn1cc(NS(=O)(=O)c2ccc(N3CCCC3=O)cc2)cn1 [CBK305922]	85.3	–
CCOc1ccc(Cl)cc1CCNC(=O)NC(C)c1nnnn1C (stereo not drawn) [CBK305923]	89.2	–
O=C(NS(=O)(=O)c1cccc(-c2nnco2)c1)C1CC1C1CCCCC1 (stereo not drawn) [CBK305924]	90.8	–
Cc1nc(CNC(=O)NC2CCCN(c3ccn(C)n3)C2=O)c(C)s1 (stereo not drawn) [CBK305926]	95	–
Cc1cccc(CN2CCC(NC(=O)c3cn(C(C)(C)C)nn3)CC2)c1 [CBK305927]	92	–
Cc1ccc(C(=O)NCC(c2ccccc2Cl)N2CCOCC2)c(=O)[nH]1 (stereo not drawn) [CBK305928]	99.3	–
CCCn1c(SCC(=O)N2CCOCC2)nc2ccc(Br)cc2c1=O [CBK305929]	83	–
N#CCCn1cc(C(=O)N2CCCCC2)c(-c2ccccc2)n1 [CBK305931]	100	–
CN(C)C(=O)CSc1nc2cc(Cl)ccc2c(=O)n1CC1CCCO1 (stereo not drawn) [CBK305932]	97.3	–
CCOCCCNC(=O)c1cccc(S(=O)(=O)N2CCCC2)c1 [CBK305934]	104	–
CC(Sc1nc2cc(Cl)ccc2c(=O)n1CC1CCCO1)C(N)=O (stereo not drawn) [CBK305935]	99.6	–
CNC(=O)CSc1nc2cc(Cl)ccc2c(=O)n1CC1CCCO1 (stereo not drawn) [CBK305937]	86.9	–
Cc1ccc(-c2nn(CCC#N)cc2C(=O)N2CCOCC2)cc1 [CBK305939]	96.2	–
COc1cccc(-c2nn(CCC#N)cc2C(=O)N2CCCCC2)c1 [CBK305942]	101	–
Cc1nc(-c2cccnc2)[nH]c(=O)c1CC(=O)N1CCSCC1 [CBK305944]	90.7	–
CC(C(=O)Nc1ccc(S(N)(=O)=O)cc1)N(C)Cc1cccs1 (stereo not drawn) [CBK305945]	88.8	–
CC1CCc2c(sc3ncnc(SCC(=O)N(C)C)c23)C1 (stereo not drawn) [CBK305946]	92.9	–
